The values below come from patent US9884854B2, “N-[(pyrimidinylamino)propanyl]-and N[(pyrazinylamino)proppanyl]arylcarboxamides” (Boehringer Ingelheim International GmbH, priority 2016, dated 2018).

Each structure is given as a SMILES string. Where only a bound is given, the exact number is not on record here.

One data set concerns the target T1, human orexin 2 receptor (Homo sapiens, UniProt O43614).
T1 construct: stably expressing the full-length human orexin 2 receptor and the aequorin photoprotein; expressed in transfected cells; host or cells: CHO-K1 (CHO-K1/hOx2), co-expressing aequorin
T1 sequence (O43614 1-444): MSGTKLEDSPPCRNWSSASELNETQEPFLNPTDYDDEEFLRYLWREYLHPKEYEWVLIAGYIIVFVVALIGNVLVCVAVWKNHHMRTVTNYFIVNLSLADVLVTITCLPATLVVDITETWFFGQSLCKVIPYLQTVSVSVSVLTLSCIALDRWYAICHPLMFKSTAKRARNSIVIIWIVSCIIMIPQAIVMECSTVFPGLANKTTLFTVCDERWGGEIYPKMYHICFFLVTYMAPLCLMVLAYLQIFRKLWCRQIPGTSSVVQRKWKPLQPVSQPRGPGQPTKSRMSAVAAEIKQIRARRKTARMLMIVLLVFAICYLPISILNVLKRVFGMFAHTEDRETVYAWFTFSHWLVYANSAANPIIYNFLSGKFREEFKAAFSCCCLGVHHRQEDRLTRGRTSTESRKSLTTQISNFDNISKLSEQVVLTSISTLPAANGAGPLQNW
In words: Assay B: OX2R IP1 (in vitro OX2R potency). The settings on record: 0.5 nM Orexin A concentration. The format is cell-based. An excerpt:
Activation of the orexin receptors expressed in cell lines results in an increase in intracellular IP3 concentration. IP1, a downstream metabolite of IP3, accumulates in cells following receptor activation and is stable in the presence of LiCl. Using Homogeneous Time-Resolved Fluorescence technology with Lumi4-Tb cryptate (commercially available from Cisbio Bioassay.) and a suitable fluorescence plate reader. […] Chem. Genomics 2009, 3, 22-32. This technique is used to characterize pharmacological modification of the orexin receptors.
B. In Vitro Testing of OX2R Potency: OX2R IP1
IP1 measurements are performed in CHO-K1 cells stably expressing the full-length human orexin 2 receptor and the aequorin photoprotein. Cells are cultivated in Ham's nutrient mixture F12 medium with 10% fetal calf serum, in a 37° C., 95% humidity and 5% CO2 incubator. The CHO-K1/hOx2 cell mass is expanded to larger cell numbers. The cells are obtained as frozen cells in cryo-vials and stored until use at −150° C. The viability of the cells after thawing is >90%. In preparation for the assay, 24 hours before the assay, the cells are thawed at 37° C. and immediately diluted with cell culture medium. After centrifugation, the cell pellet is resuspended in medium and then distributed into the assay plates with a density of 5000 cells/25 μL per well. The plates are incubated for one hour at room temperature to reduce edge effects before they are incubated for 24 hours at 37° C./5% CO2. Compounds are prepared by a 8-point serial dilution in DMSO and a final dilution step into assay buffer (HBSS with 20 mM HEPES, 0.1% BSA and 50 mM LiCl, pH 7.4) to ensure a final DMSO concentration of 1% in the assay. On the day of the assay, cells in the plate are washed twice with 60 μL assay buffer (20 μL buffer remained in the wells after washing), followed by adding 5 μL per well of compounds diluted in assay buffer. After 15 minutes of incubation at room temperature 5 μL per well of Orexin A peptide (final concentration: 0.5 nM) dissolved in assay buffer is added to the assay plate. The assay plate is incubated for 60 minutes at 37° C. Then 5 μl per well of Anti-IP1-Cryptate Tb solution and 5 μl per well of IP1-d2 dilution are added to all well of the plate and the plate is incubated for a further 60 minutes light protected at room temperature. The emission at 615 nm and 665 nm (Excitation wavelength: 320 nm) are measured using an EnVision reader (PerkinElmer). The ratio between the emission at 665 nm and 615 is calculated by the reader.
8-point four parametric non-linear curve fitting and determination of IC50 values and Hill slopes is performed using a regular analysis software e.g. AssayExplorer (Accelrys). In order to establish an agonist concentration independent parameter, Kb values are calculated using the following equation: IC50/((2+(A/EC50)n)^1/n−1) (with A=concentration agonist, EC50=EC50 agonist, n=Hill slope agonist) (see P. Leff, I. G. Dougall, Trends Pharmacol. Sci. 1993, 14(4), 110-112).
Kb values from Assay A (OX1R) and Assay B (OX2R) can then provide a selectivity ratio which is independent of the agonist (Orexin A) concentration.

The nature of data set [1]: Assay C: metabolic stability in human liver microsomes (Human MST). Format: in vitro ADME. The settings on record: pooled human liver microsomes, pH 7.6, 1 μM compound, 37° C., read-out: Human MST t1/2. An excerpt:
Stability in human liver microsomes refers to the susceptibility of compounds to biotransformation in the context of selecting and/or designing drugs with favorable pharmacokinetic properties. The primary site of metabolism for many drugs is the liver. Human liver microsomes contain the cytochrome P450s (CYPs), and thus represent a model system for studying drug metabolization in vitro. Enhanced stability in human liver microsomes is associated with several advantages, including increased bioavailability and longer half-life, which can enable lower and less frequent dosing of patients. Thus, enhanced stability in human liver microsomes is a favorable characteristic for compounds that are to be used for drugs.
C. Assessment of Metabolic Stability in Human Liver Microsomes (Human MST)
The metabolic stability of the compounds according to the invention may be investigated as follows:
The metabolic degradation of the test compound is assayed at 37° C. with pooled human liver microsomes. The final incubation volume of 100 μL per time point contains TRIS buffer pH 7.6 at room temperature (0.1 M), MgCl2 (5 mM), microsomal protein (1 mg/mL) and the test compound at a final concentration of 1 μM. Following a short pre-incubation period at 37° C., the reactions are initiated by addition of beta-nicotinamide adenine dinucleotide phosphate, reduced form (NADPH, 1 mM), and terminated by transferring an aliquot into solvent after different time points. After centrifugation (10000 g, 5 min), an aliquot of the supernatant is assayed by LC-MS/MS for the amount of parent compound. The half-life (t1/2) is determined by the slope of the semi-logarithmic plot of the concentration-time profile.

Data set [2] addresses T2, OX2R (Homo sapiens, UniProt O43614).
T2 sequence (O43614 1-444): T1 sequence (O43614 1-444)
The settings on record: Table 3 of WO2016/034882; cited from earlier work.

The target in data set [3] is T3, OX1R (Homo sapiens, UniProt O43613).
T3 sequence (O43613 1-425): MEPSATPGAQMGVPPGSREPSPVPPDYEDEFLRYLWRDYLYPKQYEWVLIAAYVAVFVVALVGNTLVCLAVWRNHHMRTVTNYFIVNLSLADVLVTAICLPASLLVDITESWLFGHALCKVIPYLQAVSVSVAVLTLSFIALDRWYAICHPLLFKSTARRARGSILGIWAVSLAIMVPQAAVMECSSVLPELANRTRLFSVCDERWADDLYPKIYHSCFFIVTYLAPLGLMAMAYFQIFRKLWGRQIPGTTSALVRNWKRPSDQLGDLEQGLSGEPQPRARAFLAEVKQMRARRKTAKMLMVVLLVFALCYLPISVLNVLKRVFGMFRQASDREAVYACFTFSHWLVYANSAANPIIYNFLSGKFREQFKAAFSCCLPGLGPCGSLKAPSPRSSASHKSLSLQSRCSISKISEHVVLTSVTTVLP
The following applies: Table 3 of WO2016/034882; cited from earlier work.

Another data set has as its system human MDR1 P-gp. The data set is described as follows: Assay D: efflux in MDCK cells transfected with the human MDR1 gene. The settings on record: dog; MDCK-MDR1 monolayers, pH 7.4, 37° C.; read-out: MDCK efflux ratio (BA/AB). Format: in vitro ADME, canine. Here is the method:
The MDCK assay provides information on the potential of a compound to pass the blood brain barrier. Permeability measurements across polarized, confluent MDCK-MDR1 cell monolayers grown on permeable filter supports are used as an in vitro absorption model: apparent permeability coefficients (PE) of the compounds across the MDCK-MDR1 cell monolayers are measured (pH 7.4, 37° C.) in apical-to-basal (AB) and basal-to-apical (BA) transport direction. The AB permeability (PEAB) represents drug absorption from the blood into the brain and the BA permeability (PEBA) drug efflux from the brain back into the blood via both, passive permeability as well as active transport mechanisms mediated by efflux and uptake transporters that are expressed on the MDCK-MDR1 cells, predominantly by the overexpressed human MDR1 P-gp. Identical or similar permeabilities in both transport directions indicate passive permeation, vectorial permeability points to additional active transport mechanisms. Higher PEBA than PEAB (PEBA/PEAB>5) indicates the involvement of active efflux mediated by MDR1 P-gp, which might compromises the goal to achieve sufficient brain exposure. Therefore this assay provides valuable support for selection of compounds applicable for further in vivo testing. High permeability not limited by efflux at the blood brain barrier is a favourable characteristic for compounds that are to be used for drugs acting primarily in the CNS
D. Assessment of Efflux in Madin-Darby Canine Kidney (MDCK) Cells Transfected with the Human MDR1 Gene
Apparent permeability coefficients (PE) of the compounds across the MDCK-MDR1 cell monolayers are measured (pH 7.4, 37° C.) in apical-to-basal (AB) and basal-to-apical (BA) transport direction. AB permeability (PEAB) represents drug absorption from the blood into the brain and BA permeability (PEBA) drug efflux from the brain back into the blood via both passive permeability as well as active transport mechanisms mediated by efflux and uptake transporters that are expressed on the MDCK-MDR1 cells, predominantly by the overexpressed human MDR1 P-gp. The compounds are assigned to permeability/absorption classes by comparison of the AB permeabilities with the AB permeabilities of reference compounds with known in vitro permeability and oral absorption in the human. Identical or similar permeabilities in both transport directions indicate passive permeation, vectorial permeability points to additional active transport mechanisms. Higher PEBA than PEAB indicates the involvement of active efflux mediated by MDR1 P-gp. Active transport is concentration-dependently saturable.
MDCK-MDR1 cells (1-2×10e5 cells/1 cm2 area) are seeded on filter inserts (Costar transwell polycarbonate or PET filters, 0.4 μm pore size) and cultured (DMEM) for 7 days. Subsequently, the MDR1 expression is boosted by culturing the cells with 5 mM sodium butyrate in full medium for 2 days. Compounds are dissolved in appropriate solvent (like DMSO, 1-20 mM stock solutions). Stock solutions are diluted with HTP-4 buffer (128.13 mM NaCl, 5.36 mM KCl, 1 mM MgSO4, 1.8 mM CaCl2, 4.17 mM NaHCO3, 1.19 mM Na2HPO4×7H2O, 0.41 mM NaH2PO4×H2O, 15 mM HEPES, 20 mM glucose, 0.25% BSA, pH 7.4) to prepare the transport solutions (0.1-300 μM compound, final DMSO<=0.5%). The transport solution (TL) is applied to the apical or basolateral donor side for measuring A-B or B-A permeability (3 filter replicates), respectively. The receiver side contains the same buffer as the donor side. Samples are collected at the start and end of experiment from the donor and at various time intervals for up to 2 hours also from the receiver side for concentration measurement by HPLC-MS/MS or scintillation counting. Sampled receiver volumes are replaced with fresh receiver solution.

For data set [4], the target named is T3, OX1R. The following applies: cited from earlier work.
For data set [5], the target named is T2, OX2R. The following applies: cited from earlier work.
The mark [6] stands for this setting: as described in WO03/051872 (page 16-18).
[7] abbreviates: corresponds to pKb described in WO03/051872.

The molecule `CCN(C(=O)c1cccc(Cl)c1-n1nccn1)[C@@H](C)CNc1ncc(C(F)(F)F)cn1` [Example 3] yielded a Kb on human orexin 2 receptor of 6.27 nM. In addition, the half-life at 1 μM in data set [1] came to 84 min.
For the molecule `CC[C@@H](CNc1ncc(C(F)(F)F)cn1)N(C)C(=O)c1nc(C)ccc1-n1cccn1` [Ex 90 in WO2016/034882], on OX2R [2], the “OX2R pIC50” value is under 6.0. The “OX2R IC50/OX1R IC50” value at OX1R [3] was “Table 3: >526”. Besides, the efflux ratio in the data set with human MDR1 P-gp is under 3.
Consider `Cc1nc(C(=O)N(C)CCNc2ncc(Br)cn2)c(-c2ccc(F)cc2)s1` [Example 6 in WO03/051872], for which the “OX1R pKb” value at OX1R [4] (setting [6]) is 6.4 to 7.4. The “OX1R Kb” value on OX1R [4] (setting [7]) is on record as 400 to 40 nM. The efflux ratio with human MDR1 P-gp was found to be 0.8. The “OX2R pKb” value at OX2R [5] (setting [6]) is reported as under 6.6 to 7.4. In addition, the “OX2R Kb” value on OX2R [5] (setting [7]) was over 250 to 40 nM.
Consider `CCN(C(=O)c1cc(F)cc(F)c1-n1nccn1)[C@@H](C)CNc1ncc(C(F)(F)F)cn1` [Example 6], for which the Kb at human orexin 2 receptor turned out to be 53.1 nM. Besides, in data set [1], the half-life at 1 μM was over 120 min.
